Read-outs that look alike come from different tables or passages of the source.
System: streptavidin
Description: The fluid channel was at first flown with Tris buffer from syringe A into the device 400 received at the corresponding inlet 411.
The acquired signals were measured from the drain current of the exemplary FET 432. […] This was similarly repeated with 1 mM streptavidin protein in the Tris buffer from syringe B. For example, 20 mM Tris buffer (pH=7.4) was prefilled in the channel and then 1 mM avidin was flowed in the 20 mM Tris buffer in the channel.

O=C(O)CCCC[C@@H]1SC[C@@H]2NC(=O)N[C@@H]21 [biotin]
binding indicated by FET signal waveform (pre-mixed 0.2 mM streptavidin with 4 mM biotin (1:20) in Tris buffer): some biotin molecules have bonded with streptavidin | binding indicated by FET signal waveform (pre-mixed 1 mM streptavidin with 4 mM biotin in Tris buffer): streptavidin and biotin bind together
